# Assay results published in ChEMBL document CHEMBL1201862, “PubChem BioAssay data set” (2004).
# Active and inactive are the calls of the source.
# Assays:
# [1] = biological target: T1, Coagulation factor XII (Homo sapiens, UniProt P00748); experiment: Factor XIIa Dose Response Confirmation from Single Well HTS. [Related pubchem assays (depositor defined):AID701]; type: functional
# T1 sequence (P00748 whole entry): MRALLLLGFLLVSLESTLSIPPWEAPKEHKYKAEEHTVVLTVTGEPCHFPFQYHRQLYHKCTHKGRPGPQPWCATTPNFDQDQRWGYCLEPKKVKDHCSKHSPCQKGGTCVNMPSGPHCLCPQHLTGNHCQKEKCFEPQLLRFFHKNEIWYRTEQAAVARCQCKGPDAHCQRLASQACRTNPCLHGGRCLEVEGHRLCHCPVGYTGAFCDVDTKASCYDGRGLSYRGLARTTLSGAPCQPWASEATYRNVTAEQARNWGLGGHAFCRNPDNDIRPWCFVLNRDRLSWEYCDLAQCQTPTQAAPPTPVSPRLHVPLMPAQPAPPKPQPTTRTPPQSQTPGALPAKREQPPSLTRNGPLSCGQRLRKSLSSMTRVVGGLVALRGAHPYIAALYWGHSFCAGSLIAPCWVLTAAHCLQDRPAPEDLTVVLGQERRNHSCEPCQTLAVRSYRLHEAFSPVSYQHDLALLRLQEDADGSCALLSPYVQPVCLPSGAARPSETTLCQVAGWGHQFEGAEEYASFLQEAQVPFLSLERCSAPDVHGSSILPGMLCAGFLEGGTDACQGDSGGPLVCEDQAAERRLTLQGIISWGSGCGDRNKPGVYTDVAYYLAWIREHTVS
# [2] = tested on: Vero; experiment: Vero 76 cell viability after compound exposure – Vero 76 cells, synthesized analogs, cytotoxicity control for West Nile virus antiviral project, SAR follow-up (AID 2414); type: functional; conditions: Chlorocebus sabaeus
# [3] = tested on: Vero; experiment: host cell viability loss, Vero E6 – synthesized analogs, cytotoxicity control for West Nile virus antiviral project, SAR follow-up (AID 2244); type: functional; conditions: Chlorocebus sabaeus
# [4] = tested on: Vero; experiment: antiviral protection of cells from WNV – synthesized analogs, SAR follow-up (AID 2238); type: functional, cell-based; conditions: Chlorocebus sabaeus
# [5] = biological target: T1, Coagulation factor XII; experiment: activated coagulation factor XII inhibitor potency, concentration-effect curve, cell-free (AID 716); type: functional
# [6] = biological target: T2, G-protein coupled receptor 55 (Homo sapiens, UniProt Q9Y2T6); experiment: inhibition of LPI-stimulated GPR55 beta-arrestin translocation – imaging, U2OS, beta-arrestin-GFP, LPI agonist, primary screen (AID 2013); type: functional;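 further: antagonist potency measured as reduced agonist-driven arrestin aggregation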
# T2 sequence (Q9Y2T6 whole entry): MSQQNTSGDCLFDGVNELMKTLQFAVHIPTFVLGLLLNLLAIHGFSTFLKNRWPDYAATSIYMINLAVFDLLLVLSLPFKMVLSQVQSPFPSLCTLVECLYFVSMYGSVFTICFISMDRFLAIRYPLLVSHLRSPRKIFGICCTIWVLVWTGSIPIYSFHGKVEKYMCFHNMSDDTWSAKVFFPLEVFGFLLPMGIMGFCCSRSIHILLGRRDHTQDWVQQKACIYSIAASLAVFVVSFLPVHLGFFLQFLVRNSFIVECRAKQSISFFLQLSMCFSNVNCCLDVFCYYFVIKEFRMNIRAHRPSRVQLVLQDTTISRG
# [7] = HPDE-C7 pancreatic duct cell viability loss – fluorescence, HTS (AID 430); type: functional, cell-based; conditions: Homo sapiens
# [8] = viability loss of HPDE-C7K cells – cell-based, fluorescence, HTS, primary screen (AID 431); type: functional; conditions: Homo sapiens
# [9] = biological target: T3, Short transient receptor potential channel 4 (Mus musculus, UniProt Q9QUQ5); experiment: potentiation of DAMGO-evoked TRPC4 calcium signal – cell-based, HEK293 TRPC4/mu-opioid, Fluo-4 calcium, EC20 DAMGO, dose response (AID 434941); type: functional
# T3 sequence (Q9QUQ5 whole entry): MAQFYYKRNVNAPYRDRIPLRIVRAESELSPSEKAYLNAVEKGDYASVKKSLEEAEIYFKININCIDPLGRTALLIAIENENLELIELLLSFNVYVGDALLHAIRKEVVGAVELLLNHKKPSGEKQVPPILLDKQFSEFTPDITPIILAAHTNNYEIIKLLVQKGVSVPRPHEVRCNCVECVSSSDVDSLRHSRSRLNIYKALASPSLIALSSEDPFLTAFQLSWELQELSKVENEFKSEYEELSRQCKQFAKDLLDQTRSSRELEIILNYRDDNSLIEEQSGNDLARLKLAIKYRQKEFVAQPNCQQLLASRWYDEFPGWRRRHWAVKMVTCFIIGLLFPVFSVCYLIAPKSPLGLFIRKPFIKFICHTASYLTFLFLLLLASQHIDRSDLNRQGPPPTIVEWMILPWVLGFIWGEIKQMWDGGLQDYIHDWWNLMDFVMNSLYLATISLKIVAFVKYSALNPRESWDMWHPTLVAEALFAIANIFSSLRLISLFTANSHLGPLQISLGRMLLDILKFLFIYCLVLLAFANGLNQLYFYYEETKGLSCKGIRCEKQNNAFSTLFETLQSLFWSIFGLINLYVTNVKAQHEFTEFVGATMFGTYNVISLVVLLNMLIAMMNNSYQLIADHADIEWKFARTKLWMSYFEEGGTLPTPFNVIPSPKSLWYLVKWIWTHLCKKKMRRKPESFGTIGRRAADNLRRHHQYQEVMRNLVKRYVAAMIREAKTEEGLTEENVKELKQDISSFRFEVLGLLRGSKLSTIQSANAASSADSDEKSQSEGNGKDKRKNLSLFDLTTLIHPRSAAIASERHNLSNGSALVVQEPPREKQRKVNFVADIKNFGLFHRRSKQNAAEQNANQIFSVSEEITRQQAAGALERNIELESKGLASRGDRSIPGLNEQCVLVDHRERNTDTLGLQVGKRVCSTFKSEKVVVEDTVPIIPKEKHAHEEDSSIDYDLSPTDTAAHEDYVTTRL
# [10] = biological target: T2, G-protein coupled receptor 55; experiment: selective activators of receptor GPR55 – imaging, U2OS cells, beta-arrestin-GFP redistribution, primary screen (AID 1961); type: functional
# [11] = NIH3T3 cell viability loss – ATP luminescence, mouse fibroblasts, counter-screen, dose response (AID 2010); type: functional, cell-based;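 further: cells exposed to compound for about 90 hours before reading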
# [12] = tested on: BJ; experiment: cells; type: functional, cell-based; conditions: Homo sapiens
# [13] = Trypanosoma cruzi growth suppression in host cells – NIH3T3 host cells, beta-gal luminescence, confirmation (AID 2044); type: functional, cell-based;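 further: intracellular parasites grown in NIH/3T3 mouse fibroblasts as host cells; luminescent beta-galactosidase reporter signal from transgenic T. cruzi replicating inside host cells; inhibitors lower the luminescence signal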
# [14] = DRD fibroblast viability loss – cell-based, non-viral oncogenic, luminescence, dose response (AID 1934); type: functional; conditions: Homo sapiens
# [15] = off-target signal loss in HeLa-CEM21 co-culture – HeLa F-luc CTL cells, cherry-picked, counter-screen for HIV-1 Env fusion inhibitor project, dose response (AID 652040); type: functional, cell-based;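 further: potency for signal decrease marking cytotoxic or nonspecific inhibition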
# [16] = viability loss in CEM21 cells – cell-based, CellTiter-Glo luminescence, cherry-picked, cytotoxicity control for viral fusion inhibitor project, dose response (AID 652042); type: functional;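 further: potency for signal decrease meaning cytotoxicity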
# [17] = biological target: T4, Ubiquitin-conjugating enzyme E2 N (Homo sapiens, UniProt P61088); type: functional
# T4 sequence (P61088 whole entry): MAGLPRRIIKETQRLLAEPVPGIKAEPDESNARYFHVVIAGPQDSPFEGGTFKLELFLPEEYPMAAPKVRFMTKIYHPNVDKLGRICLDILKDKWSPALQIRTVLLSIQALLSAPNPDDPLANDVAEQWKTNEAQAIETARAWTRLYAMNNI
# [18] = HIV-1 AD8 envelope cell-cell fusion blockers – cherry-pick, dose response (AID 652062); type: functional, cell-based;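 further: luciferase signal from cell-cell fusion driven by HIV-1 clade B AD8 Env; potency is for inhibitors of fusion seen as a drop in luminescence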
# [19] = biological target: T5, Bcl-2-related protein A1 (Mus musculus, UniProt Q07440); type: functional;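 further: confirmatory dose–response counterscreen on Bfl-1, used to check hits from a UBC13 polyubiquitin inhibitor campaign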
# T5 sequence (Q07440 whole entry): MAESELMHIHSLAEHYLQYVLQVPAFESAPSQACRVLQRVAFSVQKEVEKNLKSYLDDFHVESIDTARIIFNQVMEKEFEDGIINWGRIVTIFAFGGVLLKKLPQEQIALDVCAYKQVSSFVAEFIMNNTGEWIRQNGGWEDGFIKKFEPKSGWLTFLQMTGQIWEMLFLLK
# [20] = tested on: BJ; experiment: BJ-TERT-LT-ST fibroblast viability loss – cell-based, RAS-independent, luminescence, dose response (AID 1935); type: functional; conditions: Homo sapiens;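 further: BJ fibroblasts immortalized with TERT plus LT and ST oncogenes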
# [21] = biological target: T4, Ubiquitin-conjugating enzyme E2 N; type: functional; remark: listed apart in the source
# [22] = blockers of HIV-1 ZM109 envelope-driven cell-cell fusion – HeLa effector, CEM target cells, luciferase, cherry-pick, dose response (AID 652058); type: functional, cell-based;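 further: luciferase signal from HIV-1 Env mediated cell-cell fusion of effector and target cells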
# [23] = biological target: T6, Type-1 angiotensin II receptor (Homo sapiens, UniProt P30556); experiment: agonist activity at AGTR1 – cell-based, uHTS hits, selectivity assay for APJ receptor agonist project, dose response (AID 488865); type: functional;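 further: beta-arrestin recruitment to AT1 measured by enzyme fragment complementation luminescence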
# T6 sequence (P30556 whole entry): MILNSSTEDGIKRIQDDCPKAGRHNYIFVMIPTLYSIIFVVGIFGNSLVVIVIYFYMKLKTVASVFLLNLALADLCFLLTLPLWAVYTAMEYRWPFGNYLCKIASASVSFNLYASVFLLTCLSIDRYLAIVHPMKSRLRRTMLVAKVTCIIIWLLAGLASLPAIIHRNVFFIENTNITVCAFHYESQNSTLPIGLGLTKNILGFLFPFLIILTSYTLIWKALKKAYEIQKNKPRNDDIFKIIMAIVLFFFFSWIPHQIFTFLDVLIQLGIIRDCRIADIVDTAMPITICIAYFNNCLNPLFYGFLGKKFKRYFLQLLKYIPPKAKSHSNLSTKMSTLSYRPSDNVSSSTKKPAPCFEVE
# [24] = blockers of HIV-1 envelope-mediated cell-cell fusion – cherry-pick, dose response (AID 652057); type: functional, cell-based
# [25] = tested on: BJ; experiment: BJ-TERT fibroblast viability loss – cell-based, RAS-independent, luminescence, dose response (AID 1933); type: functional; conditions: Homo sapiens
# [26] = Luminescence Cell-Based Dose Response HTS to Identify Inhibitors of 5'UTR Stem-Loop Driven Prion Protein mRNA Translation in H4 Neuroglioblastoma Cells. [Related pubchem assays: 1827 (Project Summary), 1813 (Primary HTS)]; type: functional
# [27] = Vero E6 cell cytotoxicity, dose response, cytotoxicity control for non-replicating M. tuberculosis project, secondary assay (AID 492998); type: functional, VeroE6; conditions: Vero C1008
# [28] = tested on: INS1; experiment: INS-1E survival protection against cytokine death – cell-based, luminescence, retest, dose response (AID 449756); type: functional; conditions: Rattus norvegicus;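 further: cell death triggered by IL-1 beta plus TNF-alpha plus IFN-gamma mixture; protective hits raise ATP signal compared with cytokine alone wells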
# [29] = tested on: HEK293; experiment: NOD2 signaling inhibitors in MDP-stimulated cells, cell-based, uHTS, luminescence (AID 2001); type: functional; conditions: Homo sapiens
# [30] = tested on: HEK293; experiment: cells; type: functional, cell-based; conditions: Homo sapiens
# [31] = cells; type: functional
# [32] = alpha-synuclein stem-loop luciferase translation blockers – H4 neuroglioma cells, luminescence, confirmation (AID 1988); type: functional, cell-based
# [33] = tested on: HEK293; experiment: cells; type: functional, cell-based; conditions: Homo sapiens; remark: listed apart in the source
# [34] = biological target: Nucleotide-binding oligomerization domain-containing protein 2 (Homo sapiens, UniProt Q9HC29); experiment: inhibition of NOD2-driven NF-kB reporter – cell-based, luminescence, uHTS, HEK293 (AID 1566); type: functional
# Nucleotide-binding oligomerization domain-containing protein 2, sequence (Q9HC29 whole entry, the tested form may be a part): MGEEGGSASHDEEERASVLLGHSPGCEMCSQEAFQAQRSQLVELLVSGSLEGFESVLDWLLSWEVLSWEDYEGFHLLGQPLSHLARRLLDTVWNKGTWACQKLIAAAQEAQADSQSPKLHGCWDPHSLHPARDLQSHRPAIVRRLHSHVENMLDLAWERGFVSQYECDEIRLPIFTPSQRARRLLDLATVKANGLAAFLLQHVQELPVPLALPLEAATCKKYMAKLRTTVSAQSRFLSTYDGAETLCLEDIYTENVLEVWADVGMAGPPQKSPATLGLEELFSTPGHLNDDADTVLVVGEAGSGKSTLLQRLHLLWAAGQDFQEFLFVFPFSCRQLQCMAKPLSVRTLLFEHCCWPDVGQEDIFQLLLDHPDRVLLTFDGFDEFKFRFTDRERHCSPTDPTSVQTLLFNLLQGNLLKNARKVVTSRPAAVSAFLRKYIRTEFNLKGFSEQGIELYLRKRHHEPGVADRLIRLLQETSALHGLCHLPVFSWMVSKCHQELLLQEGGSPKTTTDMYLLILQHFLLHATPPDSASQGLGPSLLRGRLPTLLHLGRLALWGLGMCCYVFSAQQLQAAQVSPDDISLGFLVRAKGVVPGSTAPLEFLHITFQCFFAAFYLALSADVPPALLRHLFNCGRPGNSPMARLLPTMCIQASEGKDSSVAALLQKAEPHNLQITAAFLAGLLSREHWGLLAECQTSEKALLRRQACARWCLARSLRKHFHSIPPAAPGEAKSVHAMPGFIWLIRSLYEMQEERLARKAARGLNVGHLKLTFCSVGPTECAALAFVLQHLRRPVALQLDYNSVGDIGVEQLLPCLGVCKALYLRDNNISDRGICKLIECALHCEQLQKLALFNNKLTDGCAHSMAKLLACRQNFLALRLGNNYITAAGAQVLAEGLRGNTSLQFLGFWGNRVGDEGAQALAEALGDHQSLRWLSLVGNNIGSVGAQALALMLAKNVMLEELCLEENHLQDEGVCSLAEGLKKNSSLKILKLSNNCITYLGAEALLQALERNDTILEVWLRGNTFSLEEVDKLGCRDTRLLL
# [35] = luciferase reporter signal suppression in cells – H4 neuroglioma cells, luminescence, dose response (AID 1990); type: functional, cell-based
# [36] = microbe, parasite or virus in culture; type: functional; conditions: Mycobacterium tuberculosis
# [37] = tested on: HEK293; experiment: inhibition of NOD1-driven NF-kB reporter – cell-based, luminescence, uHTS, primary screen (AID 1578); type: functional; conditions: Homo sapiens
# [38] = tested on: HEK293; experiment: cells; type: functional, cell-based; conditions: Homo sapiens; remark: listed apart in the source
# [39] = THP-1 cell cytotoxicity, dose response, cytotoxicity control for non-replicating M. tuberculosis project (AID 489025); type: functional
structure (smiles),measurement,setting,value
Cc1ccc(NC(=O)C2(S(=O)(=O)c3ccc(C)cc3)CC2)cc1,IC50,[1],> 50 µM (inactive)
O=C(CSc1nc2ccccc2c(=O)n1-c1ccccc1)Nc1ccc2c(c1)CCC2,CC50,[2],> 66.6 µM (active)
same,CC50,[3],> 40 µM (active)
same,IC50,[4],15.5 µM (active)
Cc1c(C(=O)OCCOC(C)C)[nH]c2c1C(=O)CC(C)(C)C2,IC50,[5],> 50 µM (inactive)
N#C/C(=C/c1c[nH]nc1-c1cccc(Br)c1)C(=O)O,IC50,[6],1.12 µM (active)
CCCC1(c2ccccc2)NC(=O)N(CC(=O)c2[nH]c(C)c(C(=O)OCC)c2C)C1=O (stereo unspecified),EC50,[7],> 20 µM (not active)
same,EC50,[8],> 20 µM (not active)
same,EC50,[9],2.66 µM (active)
COc1ccccc1OCC(=O)/C=C1/N(C)c2ccccc2C1(C)C,EC50,[10],5.48 µM (active)
COc1ccc2sc(N(CCCN(C)C)C(=O)c3ccc(S(=O)(=O)N4CCc5ccccc5C4)cc3)nc2c1,EC50,[11],5.73 µM (active)
same,EC50,[12],10 µM (active)
same,EC50,[13],0.228 µM (active)
same,EC50,[14],5.14 µM (inconclusive)
same,AC50,[15],8.3 µM (active)
same,AC50,[16],3.7 µM (active)
same,IC50,[17],8.44 µM (active)
same,AC50,[18],6.84 µM (active)
same,IC50,[19],> 20 µM (inactive)
same,EC50,[20],4.5 µM (inconclusive)
same,IC50,[21],8.54 µM (active)
same,AC50,[22],9.11 µM (active)
same,EC50,[23],> 100 µM (inactive)
same,AC50,[24],6.44 µM (active)
same,EC50,[25],2.75 µM (inconclusive)
Cc1cc(N/N=C/c2ccccc2[N+](=O)[O-])nc(-n2nc(C)cc2C)n1,EC50,[26],13.1 µM (active)
same,EC50,[11],7.48 µM (active)
same,CC50,[27],6.96 µM (active)
same,EC50,[13],2.26 µM (active)
same,AC50,[28],2.77 µM (active)
same,IC50,[29],6.54 µM (inactive)
same,IC50,[30],> 20 µM (inactive)
same,IC50,[31],0.6 µM (active)
same,EC50,[32],> 120 µM (not active)
same,IC50,[33],15.6 µM (active)
same,EC50,[34],> 20 µM (inactive)
same,EC50,[35],13.3 µM (active)
same,CC50,[36],15.5 µM (active)
same,EC50,[37],6.21 µM (active)
same,IC50,[38],> 20 µM (inactive)
same,CC50,[39],4.01 µM (active)
